In publication PMC10397409, “The action of physiological and synthetic steroids on the calcium channel CatSper in human sperm” (Frontiers in Cell and Developmental Biology, 2023):
Where two headings read alike, the source gives them in different places.

Key:
CatSper [1] = biological target: T1, CatSper (Homo sapiens, UniProt Q7RTX7+Q86XQ3+Q8NEC5+Q96P56); test: Inhibition of P4-induced Ca2+ influx in human sperm (screen 2 inhibitors); type: cell-based; details: for Max P4 inhibition (%) (± SD): 3 independent experiments
T1 construct: Motile spermatozoa were selected by a ‘swim-up’ procedure; endogenous in cells; host or cells: motile human spermatozoa (swim-up) from healthy donors

CatSper [2] = biological target: T1, CatSper; test: Inhibition of PGE1-induced Ca2+ influx in human sperm (screen 2 inhibitors); type: cell-based
Procedure: Briefly, motile spermatozoa were selected by swim-up and labeled with the fluorescent calcium indicator Fluo-4 a.m. to image changes in [Ca^2+]i. After centrifugation to remove excess dye, Fluo-4 AM loaded cells were distributed in a 384-wells plate to obtain ∼125,000 cells/well. After measuring basal fluorescence, a first injection of compounds was performed in order to evaluate their effect on [Ca^2+]i alone. This first screen is therefore considered as a screen to search for ‘activators’. Fluorescence was recorded for 12 min during which sperm cells were continuously exposed to compounds. P4 or PGE1 were then added in the same wells to evaluate whether the tested compounds can reduce the ligand-induced activation of CatSper. This second screen was therefore considered to be a search for CatSper ‘inhibitors’.
Human semen samples were collected from healthy donors by masturbation after a recommended sexual abstinence period of minimum 2 days. Semen samples were allowed to liquefy at 37°C for 15–30 min. Motile spermatozoa were selected by a ‘swim-up’ procedure as previously described ([Strünker et al., 2011]). Briefly, 1 mL of semen was deposited in a 45°-inclined 50 mL Falcon tube with 4 mL of Human Tubular Fluid (HTF) medium containing: 93.8 mM NaCl, 4.7 mM KCl, 0.2 mM MgSO4, 0.37 mM KH2PO4, 2.04 mM CaCl2, 20.98 mM HEPES, 2.78 mM glucose, 21.4 mM Na-lactate, 4 mM NaHCO3, 0.33 mM Na-pyruvate, and the pH was adjusted to 7.35. Motile sperm were allowed to swim at 37°C for 1 hour. The supernatant was collected in 15 mL Falcon tubes and washed twice by centrifugation at 700 x g for 20 min. Sperm were supplemented with 3 mg/mL HSA. Written informed consent was obtained from all donors prior to donation and approved by the Cantonal Ethics Committee of the State of Geneva (CCER #14-147).
Cells were loaded with the fluorescent Ca^2+ indicator Fluo-4 AM at a final concentration of 2.5 µM for 30 min at 37°C. Excess dye was washed via centrifugation at 700 x g for 20 min and sperm were resuspended in HTF medium to obtain a final concentration of 6.25 x 10^6 cells/mL. 20 μL of cells (corresponding to ∼125,000 cells) loaded with Fluo-4 a.m. were dispensed in a 384-wells plate (Corning, NY, United States) to allow fluorescence measurement. The dye was excited at 480 nm, and emission was recorded at 530 nm. The change in [Ca^2+]i was assessed simultaneously in all wells using a Functional Drug Screening System (FDSS/μCELL) (Hamamatsu Phototonics K.K., Yokohama, Japan) at 37°C. Basal fluorescence was first measured for 30 s. […] P4 and PGE1 were tested at a near-saturating concentration in the HTS in order to evaluate a potential additive or synergistic effect induced by the compounds. Non-specific CatSper inhibitor MDL 12330A was used as a negative control at final concentration of 20 µM while DMSO was used as a vehicle control. For alkalization-induced Ca^2+ measurement, NH4Cl was used as a positive control at a final concentration of 10 mM. Fluorescence was recorded for a total of 16.5 min: 30 s before injection, 12 min after the first injection of the tested compounds, and 4 min after the second injection of either P4 or PGE1. The Prestwick library was tested in technical duplicate. Ca^2+ response curves were normalized using the following formula F−F0/F0×100 , where F 0 is the average of the basal fluorescence prior to the addition of the compound of interest and F corresponds to the fluorescence value at each time point. The ∆F/F0 of the vehicle control (DMSO) was subtracted from all the other values to adjust for dilution and pipetting artifacts. The values of all compounds were normalized to their respective controls.

human sperm = test: Sperm penetration in viscous media (modified Kremer test); type: cell-based; details: steroids 10 µM, P4 5 µM, 1 h, 1% methylcellulose
Procedure: The ability of sperm to penetrate in viscous media similar in viscosity to that found in the female reproductive tract was assessed using the modified Kremer test, as previously described ([Rahban et al., 2021]). Briefly, swim-up recovered and capacitated sperm cells at 3 x 10^6/mL were incubated in the absence (DMSO) or presence of steroids (10 µM), or P4 (5 µM) as a positive control for 1 h at 37°C. A glass capillary (0.2 × 4.0 × 50 mm, CM scientific, UK) was filled with 1% (w/v) methylcellulose (MC, 4000 centipoises cP) prepared with HTF media supplemented with 3 mg/mL HSA, respective compounds (10 µM), P4 (5 µM), or DMSO. The glass capillary tube was then sealed on one end with wax (Vitrex, UK) and added to the sperm cells on the open end. Sperm penetration was assessed after 1 h of incubation at 37°C by counting sperm at 1 cm using a microscope with a ×10 objective.

[3] = ref Löfgren and Bäckström (1990), cited from earlier work
CatSper [4] = biological target: T1, CatSper; test: Cross-desensitization: P4 dose-response after pre-incubation with steroid at 10 µM; type: cell-based; details: in the presence of predicted steroid at 10 µM, normalized to DMSO; P4 = control curve; n = 3; read-out: EC50 generated from concentration-response curves of P4-induced [Ca2+]i influx
[5] = IC50 (±SD), inhibition of P4-induced Ca2+ response, dose-response 90 µM to 0.3 nM
[6] = Mean IC50 (P4) µM (±SD), P4-induced response, pooled from 3 independent experiments

| Structure (SMILES) | Max P4 inhibition (%) (± SD) (CatSper [1]) | IC50 (CatSper [1]; [5]) | IC50 (CatSper [2]) | IC50 (CatSper [1]; [6]) | number of sperm penetrating viscous medium at 1 cm (human sperm) | Maximum serum level ([3]; female) | Maximum serum level ([3]; male) | IC50 (CatSper [1]; inhibition of P4-induced Ca2+ response, dose-response 90 µM to 0.3 nM, read-out: IC50 (±SD)) | EC50 (CatSper [4]) |
| --- | --- | --- | --- | --- | --- | --- | --- | --- | --- |
| CC(=O)[C@H]1CC[C@H]2[C@@H]3CC=C4C[C@@H](O)CC[C@]4(C)[C@H]3CC[C@]12C [Pregnenolone] | 82 (±5) % | 0.199 µM | 11 nM |  |  |  |  |  |  |
| C[C@]12Cc3c[nH]nc3C[C@@H]1CC[C@@H]1[C@@H]2CC[C@@]2(C)[C@H]1CC[C@]2(C)O [Stanozolol] | 96 (±2) % | 0.194 µM | 117 nM | 0.19 µM | significant increase in cell number |  |  |  |  |
| CC(=O)[C@H]1CC[C@H]2[C@@H]3CCC4=CC(=O)CC[C@]4(C)[C@H]3CC[C@]12C [Progesterone] | 79 (±7) % |  |  |  |  | 60 nM (female) | 3 nM (male) | 0.006 µM | 5 nM |
| C[C@]12CC[C@H](O)C[C@@H]1CC[C@@H]1[C@@H]2CC[C@]2(C)C(=O)CC[C@@H]12 [Epiandrosterone] | 72 (±2) % | 0.628 µM |  | 0.625 µM |  |  |  |  |  |
